# Literature values as cited in patent publication US6531115B1, “Analgesic and refreshing herbal composition and a process for preparing the same” (Council of Scientific & Industrial Research, priority 2001, dated 2003).
# System: toothache
# Conditions: in vivo
row,SMILES,pain-relieving activity
1,CCO [alcohol],almost no effect
2,Cc1ccc(C(C)C)c(O)c1 [Thymol],very weak

# System: artificial toothache
# Conditions: rabbits having artificial toothache
row,SMILES,sedative effect on toothache
1,CC1CCC(C(C)C)C(O)C1 (stereo not drawn) [menthol],weak
2,CC12CCC(CC1)C(C)(C)O2 [eucalyptol],weak
3,Oc1ccccc1 [Phenol],strongest action
4,CC12CCC(CC1=O)C2(C)C (stereo not drawn) [camphor],no sedative effect
